Key:
SIRT1 = target: T1, SIRT1 (Homo sapiens, UniProt Q96EB6); parameters: method as in PMID 28475330; conditions: reference inhibitors, same experimental conditions; cited from earlier work
T1 sequence (Q96EB6 1-747): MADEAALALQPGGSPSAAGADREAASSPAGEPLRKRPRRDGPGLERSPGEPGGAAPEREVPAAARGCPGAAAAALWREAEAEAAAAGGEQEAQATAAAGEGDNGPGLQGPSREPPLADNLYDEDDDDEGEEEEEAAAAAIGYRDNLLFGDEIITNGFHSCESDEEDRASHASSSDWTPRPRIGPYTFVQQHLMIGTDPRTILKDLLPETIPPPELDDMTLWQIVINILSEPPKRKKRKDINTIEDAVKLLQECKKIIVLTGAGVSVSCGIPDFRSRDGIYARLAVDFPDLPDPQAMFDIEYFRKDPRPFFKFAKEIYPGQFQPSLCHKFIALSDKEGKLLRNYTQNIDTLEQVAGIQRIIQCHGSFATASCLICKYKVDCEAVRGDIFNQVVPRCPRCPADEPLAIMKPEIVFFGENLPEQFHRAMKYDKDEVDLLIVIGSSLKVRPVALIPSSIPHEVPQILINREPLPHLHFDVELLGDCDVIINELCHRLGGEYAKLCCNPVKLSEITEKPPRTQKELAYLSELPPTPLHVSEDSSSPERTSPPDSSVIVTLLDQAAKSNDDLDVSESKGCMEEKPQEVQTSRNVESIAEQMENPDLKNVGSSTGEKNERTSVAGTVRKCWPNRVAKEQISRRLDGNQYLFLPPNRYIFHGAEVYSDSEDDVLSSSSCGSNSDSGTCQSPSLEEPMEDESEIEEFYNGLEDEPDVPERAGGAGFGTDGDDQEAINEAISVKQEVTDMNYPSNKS

K-562 cells = assay: Acetylation of histone H4 and α-tubulin by Western blot, K-562; assay type: cell-based, human; conditions: K-562, 5 or 50 µM
Protocol: Total proteins were extracted using the MPER® reagent (Thermo-scientific, […], Belgium) supplemented by 1× protease inhibitor cocktail (Complete EDTA-free, Roche, Prophac, Luxembourg, Luxembourg) according to manufacturer's instructions. Histones were extracted as previously described. Western blots were carried out as previously reported. Anti-acetylated α-tubulin (sc-23950) was from Santa Cruz Biotechnology (Tebubio, Boechout, Belgium); anti-acetylated histone H4 (06-866), anti-acetylated histone […] K-562 cells were treated with […] Acetylation of histone H4 (AcH4) and α-tubulin (Ac α- tubulin) was analyzed by Western Blot. β-actin and histone H1 were used as loading controls for the analysis of total and acid extracts, respectively. Blots are representative of three independent experiments. […]

SIRT3 = target: T2, SIRT3 (Homo sapiens, UniProt Q9NTG7); parameters: method as in PMID 28475330; conditions: cited from earlier work
T2 sequence (Q9NTG7 1-399): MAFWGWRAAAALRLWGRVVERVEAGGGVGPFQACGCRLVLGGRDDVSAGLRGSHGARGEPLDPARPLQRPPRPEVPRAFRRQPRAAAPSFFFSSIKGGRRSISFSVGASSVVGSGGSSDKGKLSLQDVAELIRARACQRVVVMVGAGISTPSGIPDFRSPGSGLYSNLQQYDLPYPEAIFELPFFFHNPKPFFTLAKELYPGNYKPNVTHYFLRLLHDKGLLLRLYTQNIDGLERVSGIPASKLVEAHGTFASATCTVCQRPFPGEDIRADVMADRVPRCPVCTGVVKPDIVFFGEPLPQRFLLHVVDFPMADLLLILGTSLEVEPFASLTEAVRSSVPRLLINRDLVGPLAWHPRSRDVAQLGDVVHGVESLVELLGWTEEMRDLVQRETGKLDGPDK

[1] = reference inhibitors, same experimental conditions

Structure (SMILES) | IC50 (SIRT1) [µM] | histone H4 or α-tubulin acetylation (K-562 cells) | histone H4 or α-tubulin acetylation (K-562 cells; listed as suramin) | remaining SIRT3 enzymatic activity compared to the control set to 100% (SIRT3; at 100 µM) [%] | IC50 (SIRT3; [1]) [µM] | IC50 SIRT3 (SIRT3; [1])
N#C/C(=C\c1ccc(-c2cc(Cl)ccc2Cl)o1)C(=O)Nc1cccc2ncccc12 [AGK2] | 98.1 ± 2.4 |  |  |  |  | 
Cc1ccc(C(=O)Nc2ccc(S(=O)(=O)O)c3cc(S(=O)(=O)O)cc(S(=O)(=O)O)c23)cc1NC(=O)c1cccc(NC(=O)Nc2cccc(C(=O)Nc3cc(C(=O)Nc4ccc(S(=O)(=O)O)c5cc(S(=O)(=O)O)cc(S(=O)(=O)O)c45)ccc3C)c2)c1 [Suramin, suramin] |  | fails to induce histone H4 or α-tubulin acetylation | failed to induce any increase in histone or α-tubulin acetylation | 70 | > 100 | inactive
